Measured values as given in patent publication US11697798B2, “Enhanced differentiation and maturation of pluripotent stem cell-derived myogenic cells” (Regents of the University of Minnesota, priority 2017, dated 2023).

Key:
Assay type in all cases: cell-based, human
[1] = test system: myotubes derived from hESC-1, hiPSC-1 and hiPSC-2; assay: Small molecule library screening (Tocriscreen Stem Cell Toolbox), MHC/DAPI area ratio; details: terminal differentiation
Experimental: After 24 hours, cells were switched to MM with 1 μg/ml Doxycyline and incubated at 37° C. for 2 days. 1/10th of EBs were then plated on gelatin coated T-75 flasks in MM with 1 μg/ml dox and 5 ng/ml human basic fibroblast growth factor (bFGF). After 4 days, cells were dissociated with 0.25% trypsin-EDTA, FACS sorted for GFP to derive myogenic progenitors which were plated at a density of 2 million/T-75 flask in MM with 1 μg/ml dox and 5 ng/ml bFGF. Once the cells reached 90% confluency, myogenic progenitors were dissociated with 0.25% trypsin-EDTA and passaged at a ratio of 1:6 to 1:8. To induce terminal differentiation, myogenic progenitors at P3-4 were plated at a density of 75,000 cells/24-well plate and allowed to grow confluent for 3 days. The medium was then switched to low nutrient differentiation medium (DM) consisting of DMEM-KO supplemented with 20% KOSR, 1% NEAA, 1% glutamax and 1% penicillin-streptomycin and incubated for five days to derive myotubes. Transplantation Experiment
Small molecule library screening was done using the tocriscreen stem cell toolbox kit (tocris) which consisted of 80 compounds. Myogenic progenitors at passage P3 or P4 were seeded at 12,000 cells/well in 96-well plates (triplicates) and incubated at 37° C. for 3 days to reach 100% confluency. After 3 days, the cells were switched to DM supplemented with 10 μM of the compounds from the library or with DMSO. Cells were incubated in this differentiation medium for 5 days to derive myotubes. Cells were then fixed with 4% PFA and stained for MHC and DAPI. The stained plates were imaged using cytation plate reader and 49 pictures were taken per well to cover most of the area. The images were stitched together and the ratio of area of MHC/DAPI staining was quantified using Image J and normalized to that of DMSO treated cells. […] Different combinations were made with selected compounds and their effect on differentiation was tested and quantified. […]

[2] = test system: hiPS cell-derived myogenic progenitors; assay: Immunofluorescence staining for MHC and MYOG after terminal differentiation; details: for Myogenin (MYOG) immunofluorescence: clustering of myogenic nuclei / Myosin heavy chain (MHC) immunofluorescence: fusion, myotube thickness: KOSR-based differentiation medium; for Myosin heavy chain (MHC) immunofluorescence: fusion, myotube thickness: versus untreated control
Experimental: (§1) Human induced Pluripotent Stem Cells (hiPSC, PLZ) or Embryonic Stem Cells (hESC, H9) were transduced with the lentiviral constructs pSAM2-PAX7-ires-GFP and pFUGW-rtTA to generate doxycycline-inducible PAX7 (iPAX7) PS-cells as previously reported (Darabi, 2012). iPAX7-PS cells were cultured on matrigel-coated flasks using mTeSR1 medium (Stem Cell Technology). Cells were differentiated to myogenic progenitors as previously described (Darabi and Perlingeiro, 2016). Briefly, iPAX7-PS cells were detached with Accumax and 1×10^6 cells were plated in 6 cm non-adherent Petri dishes with mTeSR1 supplemented with 10 uM Y-27632 (ROCK inhibitor) and incubated at 37° C., 5% CO2 on a shaker at 60 RPM for 48 h. Then, medium was replaced with EB Myogenic (EBM) Medium supplemented with 10 uM […] (GSK3-β inhibitor) and 10 uM Y-27632. Three days later supplements were removed by changing to fresh medium. At day 7, EBs were plated on gelatin-coated flasks with EBM medium+10 ng/ml human basic FGF (bFGF) and three days later 1 ug/ml of doxycycline was added to the medium to induce PAX7 expression. Cells were harvested by trypsinization at day 14 and subsequently FACS sorted for GFP(+) expression. From this point, cells are considered as myogenic progenitors and cultured on gelatin-coated flasks using EBM medium+10 ng/ml bFGF+1 ug/ml Dox.
(§2) For terminal differentiation, myogenic progenitors at P3-P5 were plated on gelatin-coated dishes with EBM medium+10 ng/ml bFGF+1 ug/ml Dox. Upon reaching 100% confluency, medium was removed and replaced with knockout serum replacement (KOSR) or horse serum based terminal differentiation medium (TDM) supplemented with 10 uM DAPT, 10 uM BMS-906024.5 days after terminal differentiation, cells were fixed or collected for RNA analysis.
After 5 days of terminal differentiation, cells were washed with PBS and fixed with 4% PFA/PBS for 10 min. Then, cells were permeabilized with 0.3% Triton X-100/PBS for 15 min and blocked with 3% BSA/PBS for 20 min. Cells were incubated with a primary antibody that recognizes all MHC isoforms (MF-20, Developmental Studies Hybridoma Bank) overnight at 4° C. The next day, cells were incubated with an Alexa-555 secondary antibody supplemented with DAPI for 1 h at RT. Cells were analyzed by epifluorescence microscopy.

[3] = test system: hES (H9) and iPS (PLZ) cell-derived myogenic progenitors; assay: RT-qPCR of myotubes differentiated from myogenic progenitors with gamma secretase inhibitors; details: for mRNA expression level of MHC3 compared to non-treated cells / mRNA expression level of Myogenin compared to non-treated cells: 10 uM, KOSR- or horse serum-based media, 5 days at 37° C.
Experimental: as §1, §2
Differentiated myotubes (5d) were collected with TRIzol (Thermo Fisher Scientific) and RNA was purified using the Direct-zol RNA MiniPrep Plus (Zymo Research) following manufacturer's instructions. cDNA was obtained by RT-PCR using SuperScript VILO (Invitrogen) and qPCR was performed by using the Premix Ex Taq ROX plus (Takara) and TaMan probes (Thermo Fisher Scientific) specific to the genes of interest. qPCR was done with a QuantStudio 6 Flex Real-Time PCR System (Thermo Fisher Scientific). Data was normalized to GAPDH expression.

[4] = test system: hiPS cell-derived myogenic progenitors; assay: Western blot for MHC8 protein in terminally differentiated myotubes; details: horse serum-based differentiation medium, TUBB loading control
Experimental: as §1, with “Dox. […]” for “Dox.”

[5] = horse serum-based differentiation medium, hiPS

| Structure (SMILES) | myotube differentiation efficiency [1] | Myogenin (MYOG) immunofluorescence: clustering of myogenic nuclei [2] | Myosin heavy chain (MHC) immunofluorescence: fusion, myotube thickness [2] | mRNA expression level of MHC3 compared to non-treated cells [3] | mRNA expression level of Myogenin compared to non-treated cells [3] | neonatal Myosin Heavy Chain (MHC8) protein detection by Western blot [4] | efficiency of differentiation by MHC and MYOG immunofluorescence ([2]; horse serum-based (HS) differentiation medium) | expression level of CAPN3 compared to untreated control [3, 5] [fold] | expression level of embryonic myosin heavy chain (MHC3) [3, 5] | expression level of neonatal myosin heavy chain (MHC8) [3, 5] |
| --- | --- | --- | --- | --- | --- | --- | --- | --- | --- | --- |
| O=C(NOC[C@H](O)CO)c1ccc(F)c(F)c1Nc1ccc(I)cc1F [PD 0325901] | promoted higher myotube differentiation efficiency | – | – | – | – | – | – | – | – | – |
| NC(=O)c1ccc(-c2nc(-c3ccc4c(c3)OCO4)c(-c3ccccn3)[nH]2)cc1 [SB 431542] | promoted higher myotube differentiation efficiency | – | – | – | – | – | – | – | – | – |
| CN1C(=O)[C@@H](NC(=O)[C@H](CCC(F)(F)F)[C@H](CCC(F)(F)F)C(N)=O)N=C(c2ccccc2)c2ccccc21 [BMS-906024] | – | induce clustering of the myogenic nuclei | improve the fusion of the nuclei to give rise to thick myotubes | increased mRNA expression levels | increased mRNA expression levels | – | – | – | – | – |
| CC(NC(=O)Cc1cc(F)cc(F)c1)C(=O)N[C@H](C(=O)OC(C)(C)C)c1ccccc1 (stereo partly shown) [DAPT] | promoted higher myotube differentiation efficiency | induce clustering of the myogenic nuclei | improve the fusion of the nuclei to give rise to thick myotubes | increased mRNA expression levels | increased mRNA expression levels | can be detected only in the presence of DAPT | improves the efficiency of the differentiation | 5 | enhances the expression levels | more than 200 fold |
